Source: patent US11566007B2, “Ras inhibitors” (Revolution Medicines, Inc., priority 2019, dated 2023)
“And” between values parts separate entries of the source, which are not always exact repeats. Identical values can stand only once. Like-named read-outs stand apart in the source and are kept apart here.

Key:
K-Ras G12C = K-Ras G12C (Homo sapiens (Human), UniProt P01116+P62937, G12C); assay: Ras-Raf (BRAF RBD) disruption / FRET / MOA assay, KRAS G12C; format: biochemical; conditions: KRAS G12C, Ras-Raf disruption/FRET/MOA assay
In short: (§1)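 A 10-point, 3-fold dilution series topping at 30 μM final was incubated 3 h at 25° C with the Ras/cyclophilin A/BRAF RBD mixture.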

K-Ras G13C = K-Ras G13C (Homo sapiens (Human), UniProt P01116+P62937, G13C); assay: Ras-Raf (BRAF RBD) disruption / FRET / MOA assay, KRAS G13C; format: biochemical; conditions: KRAS G13C; Ras-Raf disruption/FRET/MOA assay; read-out: IC50* KRAS G13C FRET data
In short: as §1

KRAS G12V = KRAS G12V (Homo sapiens (Human), UniProt P01116+P62937, G12V); assay: Ras-Raf (BRAF RBD) disruption / FRET / MOA assay, KRAS G12V; format: biochemical; conditions: read-out: IC50* KRAS G12V FRET data
In short: as §1

KRAS G12S = KRAS G12S (Homo sapiens (Human), UniProt P01116+P62937, G12S); assay: Ras-Raf (BRAF RBD) disruption / FRET / MOA assay, KRAS G12S; format: biochemical; conditions: Ras-Raf disruption/FRET/MOA assay; class symbols; read-out: KRAS G12S FRET data IC50
In short: as §1

KRAS WT = KRAS WT (Homo sapiens (Human), UniProt P01116+P62937); assay: Ras-Raf (BRAF RBD) disruption / FRET / MOA assay, KRAS WT; format: biochemical; conditions: read-out: IC50* KRAS WT FRET data
In short: as §1

NCI-H358 (K-Ras G12C) = assay: CellTiter-Glo cell viability assay, NCI-H358; format: cell-based, human; conditions: class symbols
In short: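 Steps: compound dispensed into wells holding cells; incubation to day 5; ~30 min room-temperature equilibration; luminescence read; sample signal divided by mean DMSO signal, times 100; four-parameter logistic curve fit.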

NRAS WT = NRAS WT (Homo sapiens (Human), UniProt P01111+P62937); assay: Ras-Raf (BRAF RBD) disruption / FRET / MOA assay, NRAS WT; format: biochemical; conditions: read-out: IC50* NRAS WT FRET data
In short: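 Compounds (30 μM top final, 10-point 3-fold dilutions) incubated 3 h at 25° C with nucleotide-loaded Ras, cyclophilin A and BRAF RBD. Detection with 10 nM anti-His Eu-W1024 and 50 nM anti-GST allophycocyanin over another 1.5 h. Lowered TR-FRET ratio relative to DMSO wells gives IC50.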

KRAS G13D = KRAS G13D (Homo sapiens (Human), UniProt P01116+P62937, G13D); assay: Ras-Raf (BRAF RBD) disruption / FRET / MOA assay, KRAS G13D; format: biochemical
In short: as §1

[1] = read-out: IC50* KRAS G12C FRET data
[2] = Homo sapiens, NCI-H358, 120 h, NCI-H358, 5-day treatment, read-out: Additional H358 Cell Viability assay data (K-Ras G12C, IC50)
[3] = read-out: IC50* KRAS G13D FRET data

Chain of KRAS G12S (P01116-2 other isoform, or with tags, fused parts or gaps G12S): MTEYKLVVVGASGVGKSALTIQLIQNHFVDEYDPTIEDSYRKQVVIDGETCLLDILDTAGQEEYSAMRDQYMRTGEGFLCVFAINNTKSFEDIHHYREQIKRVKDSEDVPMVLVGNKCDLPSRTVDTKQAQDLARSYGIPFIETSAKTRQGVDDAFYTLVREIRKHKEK
Chain of KRAS G12S (P62937 whole entry): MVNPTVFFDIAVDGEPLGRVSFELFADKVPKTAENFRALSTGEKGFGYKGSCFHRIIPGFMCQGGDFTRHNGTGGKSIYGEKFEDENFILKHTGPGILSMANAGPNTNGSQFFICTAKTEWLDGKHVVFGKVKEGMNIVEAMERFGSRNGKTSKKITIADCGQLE
Chain of KRAS G13D (P01116-2 other isoform, or with tags, fused parts or gaps G13D): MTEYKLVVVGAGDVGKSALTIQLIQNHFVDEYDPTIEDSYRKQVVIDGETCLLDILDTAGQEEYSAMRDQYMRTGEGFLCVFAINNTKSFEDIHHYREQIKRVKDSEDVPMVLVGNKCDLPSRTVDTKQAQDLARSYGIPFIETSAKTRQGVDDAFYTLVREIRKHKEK
Chain of KRAS G13D (P62937 whole entry): as the sequence (P62937 whole entry) above
Chain of KRAS WT (P01116-2 other isoform, or with tags, fused parts or gaps): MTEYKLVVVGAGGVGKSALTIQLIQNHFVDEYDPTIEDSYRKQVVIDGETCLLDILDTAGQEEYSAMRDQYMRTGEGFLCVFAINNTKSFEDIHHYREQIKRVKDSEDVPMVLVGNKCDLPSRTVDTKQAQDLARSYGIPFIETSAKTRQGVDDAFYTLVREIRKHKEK
Chain of KRAS WT (P62937 whole entry): as the sequence (P62937 whole entry) above
Chain of K-Ras G13C (P01116-2 other isoform, or with tags, fused parts or gaps G13C): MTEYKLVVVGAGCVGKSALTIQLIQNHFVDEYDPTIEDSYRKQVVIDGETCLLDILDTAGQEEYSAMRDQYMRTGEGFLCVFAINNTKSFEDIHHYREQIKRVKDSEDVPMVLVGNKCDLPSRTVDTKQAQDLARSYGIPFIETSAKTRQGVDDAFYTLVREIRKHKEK
Chain of K-Ras G13C (P62937 whole entry): as the sequence (P62937 whole entry) above
Chain of K-Ras G12C (P01116-2 other isoform, or with tags, fused parts or gaps G12C): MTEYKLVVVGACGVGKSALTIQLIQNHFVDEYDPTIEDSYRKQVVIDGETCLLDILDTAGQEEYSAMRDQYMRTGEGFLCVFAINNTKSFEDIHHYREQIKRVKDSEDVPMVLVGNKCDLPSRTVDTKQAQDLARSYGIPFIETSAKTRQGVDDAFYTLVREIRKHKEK
Chain of K-Ras G12C (P62937 whole entry): as the sequence (P62937 whole entry) above
Chain of KRAS G12V (P01116-2 other isoform, or with tags, fused parts or gaps G12V): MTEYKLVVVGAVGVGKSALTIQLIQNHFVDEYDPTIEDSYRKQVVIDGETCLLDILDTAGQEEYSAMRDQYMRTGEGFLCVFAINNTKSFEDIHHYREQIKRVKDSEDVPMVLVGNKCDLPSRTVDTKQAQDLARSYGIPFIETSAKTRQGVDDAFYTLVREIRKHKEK
Chain of KRAS G12V (P62937 whole entry): as the sequence (P62937 whole entry) above
Chain of NRAS WT (P01111 whole entry): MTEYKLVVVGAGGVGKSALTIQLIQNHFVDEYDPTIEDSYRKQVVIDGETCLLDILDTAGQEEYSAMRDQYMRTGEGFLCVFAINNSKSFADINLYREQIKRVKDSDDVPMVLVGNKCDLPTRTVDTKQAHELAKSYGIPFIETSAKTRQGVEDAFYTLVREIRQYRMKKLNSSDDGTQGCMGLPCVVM
Chain of NRAS WT (P62937 whole entry): as the sequence (P62937 whole entry) above

Row | IC50 (NCI-H358 (K-Ras G12C); NCI-H358, 5-day treatment, read-out: Additional H358 Cell Viability assay data (K-Ras G12C, IC50)) [µM] | Compound | IC50 (K-Ras G12C; [1]) | IC50 (K-Ras G13C) | IC50 (KRAS G12V) [nM] | IC50 (KRAS G12S) [nM] | IC50 (KRAS WT) [nM] | IC50 (NCI-H358 (K-Ras G12C); [2]) [µM] | IC50 (NRAS WT) [nM] | IC50 (KRAS G13D; [3]) [nM] | IC50 (K-Ras G12C; IC50* KRAS G12C FRET data) [nM] | IC50 (NCI-H358 (K-Ras G12C); Homo sapiens, NCI-H358, 120 h, read-out: Additional H358 Cell Viability assay data (K-Ras G12C, IC50, uM), NCI-H358, 5-day treatment) [µM] | IC50 (KRAS G13D; IC50* KRAS G13D FRET data) [nM]
1 |  | CCn1c(-c2cccnc2[C@H](C)OC)c2c3cc(ccc31)-c1csc(n1)C[C@H](NC(=O)[C@H](C(C)C)N(C)C(=O)N1CC(N(C)C(=O)/C=C/CN(C)C)C1)C(=O)N1CCC[C@H](N1)C(=O)OCC(C)(C)C2 (atropisomer, axis not shown) [Example A710] | 10 to 100 nM | 100 to 1000 nM | 100 to 1000 | 100 to 1000 | 100 to 1000 | 0.01 to 0.1 | 100 to 1000 | 100 to 1000 |  |  | 
2 |  | C=CC(=O)N1CC[C@]2(COCCN2C(=O)N(C)[C@H](C(=O)N[C@H]2Cc3nc(cs3)-c3ccc4c(c3)c(c(-c3cccnc3[C@H](C)OC)n4CC)CC(C)(C)COC(=O)[C@@H]3CCCN(N3)C2=O)C(C)C)C1 (atropisomer, axis not shown) [Example A676] | 100 to 1000 nM | 1000 to 10000 nM | 1000 to 10000 | 1000 to 10000 | 100 to 1000 | 0.01 to 0.1 | 100 to 1000 | 1000 to 10000 |  |  | 
3 |  | CO[C@@H](C)c1ncccc1-c1c2c3cc(ccc3n1CC(F)(F)F)-c1cc(cc(C(F)F)c1)C[C@H](NC(=O)[C@@H](COC1CN(C(=O)C#CC(C)(C)N(C)C)C1)C(C)C)C(=O)N1CCC[C@H](N1)C(=O)OCC(C)(C)C2 (atropisomer, axis not shown) [Example A374] | 100 to 1000 nM | > 10000 nM | > 10000 | > 10000 | > 10000 | 0.01 to 0.1 | > 10000 | > 10000 |  |  | 
4 |  | C=CC(=O)N1CC[C@H](C(=O)N(C)[C@H](C(=O)N[C@H]2Cc3cc(O)cc(c3)-c3ccc4c(c3)c(c(-c3c(C)cccc3C)n4CC)CC(C)(C)COC(=O)[C@@H]3CCCN(N3)C2=O)C(C)C)C1 [Example A226] | 100 to 1000 nM | > 10000 nM | 1000 to 10000 | 1000 to 10000 | > 10000 | 0.1 to 1 | > 10000 | > 10000 |  |  | 
5 |  | C=CC(=O)N1CC[C@@H]2[C@H](C1)CN2C(=O)N(C)[C@H](C(=O)N[C@H]1Cc2nc(cs2)-c2ccc3c(c2)c(c(-c2cccnc2[C@H](C)OC)n3CC)CC(C)(C)COC(=O)[C@@H]2CCCN(N2)C1=O)C(C)C (atropisomer, axis not shown) [Example A688] | 100 to 1000 nM | 100 to 1000 nM | 1000 to 10000 | 1000 to 10000 | 100 to 1000 | 0.1 to 1 | 100 to 1000 | 1000 to 10000 |  |  | 
6 |  | C=CC(=O)N1CC[C@H](C(=O)N(C)[C@H](C(=O)N[C@H]2Cc3cccc(c3)-c3ccc4c(c3)c(c(-c3cccnc3[C@H](C)OC)n4CC)CC(C)(C)COC(=O)[C@@H]3CCCN(N3)C2=O)[C@@H](C)C(F)(F)F)C1 (atropisomer, axis not shown) [Example A640] | 100 to 1000 nM | 100 to 1000 nM | 1000 to 10000 | 1000 to 10000 | 1000 to 10000 | 0.01 to 0.1 | 1000 to 10000 | 1000 to 10000 |  |  | 
7 |  | CCn1c(-c2cccnc2[C@H](C)OC)c2c3cc(ccc31)C1CCCN(C1)C[C@H](NC(=O)[C@@H](COC1CN(C(=O)C#CC(C)(C)N(C)C)C1)C(C)C)C(=O)N1CCC[C@H](N1)C(=O)OCC(C)(C)C2 [Example A646, (2R)-2-(((1-(4-(dimethylamino)-4-methylpent-2-ynoyl)azetidin-3-yl)oxy)methyl)-N-((6^3S,4S)-1^1-ethyl-1^2-(2-((S)-1-methoxyethyl)pyridin-3-yl)-10,10-dimethyl-5,7-dioxo-6^1,6^2,6^3,6^4,6^5,6^6-hexahydro-1^1H-8-oxa-1(5,3)-indola-6(1,3)-pyridazina-2(3,1)-piperidinacycloundecaphane-4-yl)-3-methylbutanamide] | 10 to 100 nM | > 10000 nM | > 10000 | > 10000 | > 10000 | 0.01 to 0.1 | > 10000 | > 10000 |  |  | 
8 |  | C=CC(=O)N1CCC2(CCCN(C(=O)N(C)[C@H](C(=O)N[C@H]3Cc4nc(cs4)-c4ccc5c(c4)c(c(-c4cccnc4[C@H](C)OC)n5CC)CC(C)(C)COC(=O)[C@@H]4CCCN(N4)C3=O)C(C)C)C2)CC1 (atropisomer, axis not shown) [Example A696] | 100 to 1000 nM | 100 to 1000 nM | 100 to 1000 | 100 to 1000 | 100 to 1000 | 0.1 to 1 | 100 to 1000 | 1000 to 10000 |  |  | 
9 |  | C=CC(=O)N1CC[C@H](C(=O)N(C)[C@H](C(=O)N[C@H]2Cc3cc(ccn3)-c3ccc4c(c3)c(c(-c3cccnc3COC)n4CC)CC(C)(C)COC(=O)[C@@H]3CCCN(N3)C2=O)C(C)C)C1 [Example A136] | 1000 to 10000 nM | > 10000 nM | > 10000 | > 10000 | > 10000 | > 1 | > 10000 | > 10000 |  |  | 
10 |  | C=CC(=O)N1CC(OC[C@H](C(=O)N[C@H]2C[C@H]3CN(CCO3)c3ccc4c(c3)c(c(-c3cccnc3[C@H](C)OC)n4CC(F)(F)F)CC(C)(C)COC(=O)[C@@H]3CCCN(N3)C2=O)C(C)C)C1 (atropisomer, axis not shown) [Example A723] | 100 to 1000 nM | 1000 to 10000 nM | 1000 to 10000 | 1000 to 10000 | 1000 to 10000 | 0.01 to 0.1 | 1000 to 10000 | > 10000 |  |  | 
11 |  | CO[C@@H](C)c1ncccc1-c1c2c3cc(ccc3n1CC(F)(F)F)-c1csc(n1)C[C@H](NC(=O)CCOC1CN(C(=O)C#CC(C)(C)N3CCC3)C1)C(=O)N1CCC[C@H](N1)C(=O)OCC(C)(C)C2 (atropisomer, axis not shown) [Example A363] | 10 to 100 nM | 1000 to 10000 nM | 1000 to 10000 | 1000 to 10000 | 1000 to 10000 | 0.01 to 0.1 | 1000 to 10000 | 1000 to 10000 |  |  | 
12 |  | C=CC(=O)N(C)CCN1CCN(C(=O)N(C)[C@H](C(=O)N[C@H]2Cc3cccc(c3)-c3ccc4c(c3)c(c(-c3cccnc3[C@H](C)OC)n4CC)CC(C)(C)COC(=O)[C@@H]3CCCN(N3)C2=O)C(C)C)CC1 (atropisomer, axis not shown) [Example A539] | 100 to 1000 nM | 10 to 100 nM | 100 to 1000 | 100 to 1000 | 100 to 1000 | 0.1 to 1 | 100 to 1000 | 1000 to 10000 |  |  | 
13 |  | CCn1c(-c2cccnc2[C@H](C)OC)c2c3cc(ccc31)-c1cccc(c1)C[C@H](NC(=O)[C@H](C(C)C)N1CC[C@]3(CCN(C(=O)C#C[C@H]4COCCN4C4COC4)C3)C1=O)C(=O)N1CCC[C@H](N1)C(=O)OCC(C)(C)C2 (atropisomer, axis not shown) [Example A568] | 10 to 100 nM | 1000 to 10000 nM | > 10000 | 1000 to 10000 | > 10000 | 0.01 to 0.1 | > 10000 | > 10000 |  |  | 
14 |  | C=CC(=O)N1CC[C@H](C(=O)N(C)[C@H](C(=O)N[C@H]2Cc3cc(O)cc(c3)-c3ccc4c(c3)c(c(-c3cccnc3[C@@H]3CCCO3)n4CC)CC(C)(C)COC(=O)[C@@H]3CCCN(N3)C2=O)C(C)C)C1 (atropisomer, axis not shown) [Example A281] | 10 to 100 nM and 100 to 1000 nM | 10 to 100 nM and 100 to 1000 nM | 100 to 1000 | 100 to 1000 | 100 to 1000 | 0.01 to 0.1 | 100 to 1000 | 100 to 1000 |  |  | 
15 |  | C=CC(=O)N1CC[C@H](C(=O)N(C)[C@H](C(=O)N[C@H]2Cc3cc(O)cc(c3)-c3ccc4c(c3)c(c(-c3ncn(C)c3[C@H](C)OC)n4CC)CC(C)(C)COC(=O)[C@@H]3CCCN(N3)C2=O)C(C)C)C1 [Example A301] |  | 1000 to 10000 nM | 1000 to 10000 | 1000 to 10000 | > 10000 |  |  |  | 100 to 1000 | 0.1 to 1 | > 10000
16 | 0.01 to 0.1 | C=CC(=O)N1CC[C@H](C(=O)N(C)[C@H](C(=O)N[C@H]2Cc3cc(O)cc(c3)-c3ccc4c(c3)c(c(-c3cccnc3[C@@H](OC)C3CC3)n4CC)CC(C)(C)COC(=O)[C@@H]3CCCN(N3)C2=O)C(C)C)C1 (atropisomer, axis not shown) [Example A207] | 10 to 100 nM | 100 to 1000 nM |  | 100 to 1000 | 100 to 1000 |  | 100 to 1000 | 100 to 1000 |  |  | 
